Non-standard residues stand in square brackets, D forms with d. Residues, ends and D or L forms follow the SMILES beside them. *: point of attachment. Cyclohexanecarbonyl = O=C(C1CCCCC1)*; Phe(2-Me) = Cc1ccccc1C[CH](N)C(=O)O; Tle = CC(C)(C)[CH](N)C(=O)O; X3 = CC(C)(C)OC(=O)CCC(=O)*; X4 = CCC(N*)C(OC)OC; Bn = c1ccc(C*)cc1; OtBu = CC(C)(C)O* Bounds are passed on as bounds.

`CCC(=O)OC1(C(=O)C(O)OC(=O)C(NC(=O)C2CCCN2C(=O)C(C)NC(=O)C(C)NC(=O)N(c2ccccc2)c2ccccc2)C(C)C)CCC2C3CC(C)C4=CC(=O)C=CC4(C)C3C(O)CC21C` (centres undefined) came in with a melting point of 150 to 152 °C.

`COc1cccc(Sc2cc3c(cc2Sc2cccc(OC)c2)C(=O)c2c(c(O)c4cc(Sc5cccc(OC)c5)c(Sc5cccc(OC)c5)cc4c2O)C3=O)c1` registered a melting point of 287 to 292 °C.

`CC(=O)Oc1c(C)cc(Oc2ccc3nc(COc4ccc(CC5SC(=O)N(C(c6ccccc6)(c6ccccc6)c6ccccc6)C5=O)cc4)n(C)c3n2)c(C)c1C` (centres undefined) yielded a melting point of 190 to 191 °C.

As to `CC(=O)N1C(C)(C)CC(OC(=O)CCn2c(=O)n(CCC(=O)OC3CC(C)(C)N(C(C)=O)C(C)(C)C3)c(=O)n(CCC(=O)OC3CC(C)(C)N(C(C)=O)C(C)(C)C3)c2=O)CC1(C)C`, the melting point was in the range of 126 to 128 °C.

In turn, `CCCCOC(=O)C(C)(C)Oc1ccc(-c2nc(-c3ccc(OC(C)(C)C(=O)OCCCC)cc3O)nc(-c3ccc(OC(C)(C)C(=O)OCCCC)cc3O)n2)c(O)c1` gave a melting point of 86 to 91 °C.

Compound `CCCCCCCCCCCCCCCCCCN(CCCCCCCCCCCCCCCCCC)C(=O)c1cc(NS(=O)(=O)c2cnc(Cl)c(Cl)c2)c2ccccc2c1O` yielded a melting point of 88 to 89 °C.

`CS(=N)(=O)c1ccc(-n2cnnn2)cc1` (centres undefined) returned a melting point of 180 to 181 °C.

On to `CCC(NC(=O)C(CC(C)C)NC(=O)C(NC(=O)C(Cc1ccccc1C)NC(=O)C(CCC(=O)OC(C)(C)C)NC(=O)C(CC(=O)OC(C)(C)C)NC(=O)CCC(=O)OC(C)(C)C)C(C)(C)C)C(OC)OC` (X3-D(OtBu)E(OtBu)[Phe(2-Me)][Tle]L-X4; configuration not given here), for which the melting point lay in the range of 242 to 244 °C.

The compound `COc1cc(OC)c(/C=C/C(c2ccc(OC)c(NC(=O)c3ccc([N+](=O)[O-])cc3)c2)S(=O)(=O)C(/C=C/c2c(OC)cc(OC)cc2OC)c2ccc(OC)c(NC(=O)c3ccc([N+](=O)[O-])cc3)c2)c(OC)c1` (centres undefined) gave a melting point of 206 to 208 °C.

Compound `CCCCN(c1nc(N(CCCC)C2CC(C)(C)N(OCC(C)(C)O)C(C)(C)C2)nc(N(CCCC)C2CC(C)(C)N(OCC(C)(C)O)C(C)(C)C2)n1)C1CC(C)(C)N(OCC(C)(C)O)C(C)(C)C1` displayed a melting point of 172 to 176 °C.

Turning to `O=C(O)c1ccc([Si](CCC(F)(F)C(F)(F)C(F)(F)C(F)(F)C(F)(F)C(F)(F)C(F)(F)C(F)(F)C(F)(F)C(F)(F)F)(CCC(F)(F)C(F)(F)C(F)(F)C(F)(F)C(F)(F)C(F)(F)C(F)(F)C(F)(F)C(F)(F)C(F)(F)F)CCC(F)(F)C(F)(F)C(F)(F)C(F)(F)C(F)(F)C(F)(F)C(F)(F)C(F)(F)C(F)(F)C(F)(F)F)cc1`, the melting point was 134 to 136 °C.

Take `CS(=N)(=O)c1ccc([N+](=O)[O-])c(C(=O)C2C=CC(C(F)(F)F)=C(Oc3ccccc3)C2(Cl)[N+](=O)[O-])c1` (centres undefined): the melting point was in the range of 62 to 63 °C.

In the case of `CC(CCC(=O)NCCNCCCNC(=O)CN1CCN(CC(=O)O)CCN(CC(=O)O)CCN(CC(=O)O)CC1)C1CCC2C3C(O)CC4CC(O)CCC4(C)C3CC(O)C12C` (centres undefined), the melting point was found to be 154 °C.

The compound `O=C(NCCCCCCCCCCCCNC(=O)C(O)C(O)C(O)C(O)COC1OC(CO)C(O)C(O)C1O)C(O)C(O)C(O)C(O)COC1OC(CO)C(O)C(O)C1O` (centres undefined) gave a melting point of 114 to 123 °C.

Turning to `COc1c(Oc2nc3ccccc3o2)c(C)c(C)n(Cc2ccccc2)c1=O`, the melting point fell in the range of 197 to 198 °C.

Turning to `CCCCCCCCCCCS(=O)(=O)c1cc2c3cc(S(=O)(=O)CCCCCCCCCCC)c(S(=O)(=O)CCCCCCCCCCC)cc3c3cc(S(=O)(=O)CCCCCCCCCCC)c(S(=O)(=O)CCCCCCCCCCC)cc3c2cc1S(=O)(=O)CCCCCCCCCCC`, the melting point was in the range of 179 to 180 °C.

Take `CCCCCCCCCCCCCCCCCCN(CCCCCCCCCCCCCCCCCC)C(=O)c1cc(NS(=O)(=O)c2ccc(NN)nc2)c2ccccc2c1O`: the melting point was in the range of 96 to 98 °C.

In turn, `CC(C)(C)c1cc(Cc2cc(C(C)(C)C)cc(-n3nc4ccc(S(=O)(=O)c5ccccc5)cc4n3)c2O)c(O)c(-n2nc3ccc(S(=O)(=O)c4ccccc4)cc3n2)c1` gave a melting point of 224 to 234 °C.

As for `CC(C)=CCCC(C)=CCCC(C)=CCCC(C)=CCCC(C)=CCCC(C)=CCCC(C)=CCCC(C)=CCCC(C)=CCCC(C)=CCNCC12CCCN1CCC2`, the melting point is 59 to 61 °C.

In the case of `CN1C(C)(C)CC2(CC1(C)C)NC(=O)N(CC(O)COC(=O)CCCCCCCCCCC(=O)OCC(O)CN1C(=O)NC3(CC(C)(C)N(C)C(C)(C)C3)C1=O)C2=O` (centres undefined), the melting point lay within 53 to 57 °C.

`C=CCN(CC=C)c1nc(OC)nc(N(CCCCCCN(c2nc(OC)nc(N(CC=C)CC=C)n2)C2CC(C)(C)NC(C)(C)C2)C2CC(C)(C)NC(C)(C)C2)n1` registered a melting point of 113 to 115 °C.

Regarding `Nc1cc(C(F)(F)C(F)(F)OC(F)(F)C(F)(OC(F)(F)C(F)(F)OC(F)(C(F)(F)F)C(F)(F)OC(F)(F)C(F)(F)c2ccc(O)c(N)c2)C(F)(F)F)ccc1O` (centres undefined), the melting point fell in the range of 55 to 58 °C.

The compound `CC(CCCCCCCCCCCCc1scc(Br)c1Br)C(=O)C(C)CCCCCCCCCCCCc1scc(Br)c1Br` (centres undefined) displayed a melting point of 50 to 52 °C.

Turning to `C=CCOc1nc(NC(C)(C)CC(C)(C)C)nc(N(CCCCCCN(c2nc(NC(C)(C)CC(C)(C)C)nc(OCC=C)n2)C2CC(C)(C)NC(C)(C)C2)C2CC(C)(C)NC(C)(C)C2)n1`, the melting point lay in the range of 210 to 212 °C.

As to `Cc1c(Nc2c(C#N)cnc3sc(C4=CCN(C)CC4)cc23)ccc2[nH]ccc12`, the melting point turned out to be 230 °C.

For the compound `CCCCCCCCCCCCCCCCCCOC(=O)C1(C(=O)OCCCCCCCCCCCCCCCCCC)COC2(CC(C)(C)NC(C)(C)C2)OC1`, the melting point was 54 to 56 °C.

With `CCCCN(c1nc(NC(C)(C)CC(C)(C)C)nc(N(CCCC)C2CC(C)(C)N(OC3CCCCC3)C(C)(C)C2)n1)C1CC(C)(C)N(OC2CCCCC2)C(C)(C)C1`, the melting point is 85 to 103 °C.

`CC(=O)OCC(O)CO` (centres undefined) came in with a melting point of 17 °C.

Compound `O=C(Cc1cc(I)c(Oc2cc(I)c(OCC3CO3)c(I)c2)c(I)c1)NC1CCCCC1` (centres undefined) displayed a melting point of 242 °C.

As to `CCCCOC(=O)c1ccc(=O)[nH]n1`, the melting point was 79 to 80 °C.

In the case of `FC(F)(F)C1(CNC2=NCCN2)CCCCC1`, the melting point was 154 to 157 °C.

Compound `CCCCCCCCCCCCCCCCCC[Si](C)(C)O[C@@H]1c2cc(Br)ccc2-c2ccc(Br)cc2[C@H]1O[Si](C)(C)CCCCCCCCCCCCCCCCCC` (relative stereo) had a melting point of 51.5 to 52.5 °C.

The compound `O=C(NCCCCCCCCCCCCNC(=O)C(O)C(O)C(OC1OC(CO)C(O)C(O)C1O)C(O)CO)C(O)C(O)C(OC1OC(CO)C(O)C(O)C1O)C(O)CO` (centres undefined) had a melting point of 79 to 81 °C.

Compound `COC(=O)C(CC(C)C)NC(=O)C(Cc1ccc(OCc2ccccc2)cc1)NC(=O)C(COCc1ccccc1)NC(=O)C(Cc1c[nH]c2ccccc12)NC(=O)C1CCCCC1` (Cyclohexanecarbonyl-WS(Bn)Y(Bn)L-OMe; configuration not given here) registered a melting point of 158 to 160 °C.

Turning to `N=C(Nc1ccc2[nH]cc(C3=CCN4CCCC4C3)c2c1)c1cccs1` (centres undefined), the melting point fell in the range of 122 to 124 °C.

For the compound `CCOC(=O)c1cc(NCc2c(C)cccc2CC)c2nc(C)n(C)c2c1`, the melting point lay in the range of 171 to 173 °C.

`CCCCN(c1nc(N(CCCC)C2CC(C)(C)N(OC3CCCCC3)C(C)(C)C2)nc(N(CCCC)C2CC(C)(C)N(OC3CCCCC3)C(C)(C)C2)n1)C1CC(C)(C)N(OC2CCCCC2)C(C)(C)C1` came in with a melting point of 189 to 194 °C.

The compound `CCn1cc(C(=O)N[C@@H]2C(=O)N[C@@H]2C(=O)OC)c(=O)c2ccc(C)nc21` (relative stereo) returned a melting point of 223 to 224 °C.

`CCCc1c(CC[Si](Cl)(Cl)Cl)c(CC[Si](Cl)(Cl)Cl)c(CC[Si](Cl)(Cl)Cl)c(CC[Si](Cl)(Cl)Cl)c1CC[Si](Cl)(Cl)Cl` returned a melting point of 211 to 216 °C.

In the case of `[C-]#[N+]c1c(Cl)cc(OC)cc1Cl`, the melting point fell in the range of 110 to 112 °C.

For the compound `CP(C)CCP(C)C`, the melting point was determined as 0 °C.

In turn, `CCCCCCCCCCCCCCCCCCOC(=O)CCSCc1c(C)c(O)c(C)c(CSCCC(=O)OCCCCCCCCCCCCCCCCCC)c1C` gave a melting point of 66 to 70 °C.

In the case of `COCCOCCOc1cc2c3cc(OCCOCCOC)c(OCCOCCOC)cc3c3cc(OCCOCCOC)c(OCCOCCOC)cc3c2cc1OCCOCCOC`, the melting point was 54 °C.

`CCOCc1nc(C(C)(C)O)c(C(=O)OCc2oc(=O)oc2C)n1Cc1ccc(-c2ccccc2-c2nnnn2C(c2ccccc2)(c2ccccc2)c2ccccc2)cc1` yielded a melting point of 129 to 130 °C.

`CCSC(C)CC1CC(=O)C(=C(CC)NOCC=CCl)C(=O)C1` (centres undefined) displayed a melting point of less than 25 °C.

In turn, `O=C(Oc1cccc2cc3cccc(OC(=O)c4ccccc4Oc4ccccc4)c3c(OC(=O)c3ccccc3Oc3ccccc3)c12)c1ccccc1Oc1ccccc1` came in with a melting point of 110 °C.

As to `CC(C)CCCOC(=O)NCCc1nc(-c2ccc(-c3ccccc3)cc2)c[nH]1`, the melting point stood at 128 °C.

Consider `CC(C)(C)OC(=O)N1CCN(c2ccc(C(=O)O)cc2)CC1`, for which the melting point was determined as 195 °C.

For `COc1cc2c(cc1-c1cc3c4cc(-c5ccccc5)ccc4n(CCC(C)CCCC(C)C)c3cc1OC)c1cc(-c3ccccc3)ccc1n2CCC(C)CCCC(C)C` (centres undefined), the melting point was 155 °C.

As to `CCCCCCCCCCCCCCCCCCOc1nc(OCCCCCCCCCCCCCCCCCC)nc(Oc2cc(-c3ccccc3)c(O)c(-c3ccccc3)c2)n1`, the melting point is 33 °C.

In the case of `CC(C)(C)c1cc(CCC(=O)NN=C(O)c2cc(-c3ccc(C(=O)O)c(C(O)=NNC(=O)CCc4cc(C(C)(C)C)c(O)c(C(C)(C)C)c4)c3)ccc2C(=O)O)cc(C(C)(C)C)c1O`, the melting point is 291 to 293 °C.

With `CC(C)[C@H](NC(=O)N(C)Cc1nccs1)C(=O)N[C@@H](Cc1ccccc1)[C@@H](O)[C@H](O)[C@H](Cc1ccccc1)NC(=O)[C@@H](NC(=O)N(C)Cc1nccs1)C(C)C`, the melting point lay within 176 to 178 °C.

`CC(=O)OC1C(=O)C2(C)C(O)CC3OCC3(OC(C)=O)C2C(OC(=O)c2ccccc2)C2(O)CC(OC(=O)C(OC(=O)CCC(=O)O)C(NC(=O)c3ccccc3)c3ccccc3)C(C)=C1C2(C)C` (centres undefined) came in with a melting point of 178 to 180 °C.

Turning to `O=C(Oc1c(I)cc(I)cc1I)C(F)(F)C(F)(F)C(F)(F)C(F)(F)C(F)(F)C(F)(F)F`, the melting point lay within 71 to 73 °C.

As a reminder, the melting point is the temperature, or range, at which the solid turns liquid.

Values taken from a melting point compilation (Tetko et al.).
